From patent US20220002723A1, “METHODS FOR THE TREATMENT OF SMALL ROUND CELL TUMORS” (Board of Regents, The University of Texas System, priority 2018, published 2022)

Legend:
[1] = system: JN-DSRCT cell line; settings: JN-DSRCT cells; at high levels of DHT
[2] = system: LNCaP prostate cancer cell line; settings: LNCaP cells; at high levels of DHT
[3] = system: TC-71 Ewing sarcoma cells; settings: TC-71 ES cells, lack AR expression

SMILES | proliferation on stimulation with AR agonist [1] | proliferation on stimulation with AR agonist [2] | proliferation on stimulation with AR agonist [3]
C[C@]12CCC(=O)C[C@@H]1CC[C@@H]1[C@@H]2CC[C@]2(C)[C@@H](O)CC[C@@H]12 [DHT, 5a-dihydrotestosterone] | increased proliferation | increased proliferation | no effect and not
C[C@]12CC[C@H]3[C@@H](CCC4=CC(=O)CC[C@@]43C)[C@@H]1CC[C@@H]2O [testosterone] | increased proliferation | increased proliferation | no effect
